Measured values as given in PubChem BioAssay AID256 (DTP/NCI, 2004).
“And” between values parts separate entries of the source, which are not always exact repeats. Equal values may be shown once. Toxic doses and inconclusive results are not listed.

System: CD2F1 mice, L1210 leukemia ip, survival T/C
Assay: NCI In Vivo Anticancer Drug Screen. Data for tumor model L1210 Leukemia (intraperitoneal) in CD2F1 (CDF1) mice
Conditions: endpoint: mean survival time, higher = longer survival
How it was run: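 Implant tumor; dose compound or vehicle; measure endpoint in both groups; report treated divided by control.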

[1] = dose: 100.0 mg/kg/injection, schedule: Q01DX001 (ip), vehicle: saline with Tween-80
[2] = dose: 100.0 mg/kg/injection, schedule: Q01DX009 (ip), vehicle: saline with Tween-80
[3] = dose: 200.0 mg/kg/injection, schedule: Q01DX001 (ip), vehicle: saline with Tween-80
[4] = dose: 200.0 mg/kg/injection, schedule: Q01DX009 (ip), vehicle: saline with Tween-80
[5] = dose: 400.0 mg/kg/injection, schedule: Q01DX001 (ip), vehicle: saline with Tween-80
[6] = dose: 400.0 mg/kg/injection, schedule: Q01DX009 (ip), vehicle: saline with Tween-80
[7] = dose: 100.0 mg/kg/injection, schedule: Q01DX009 (ip), vehicle: saline
[8] = dose: 100.0 mg/kg/injection, schedule: Q04DX002 (ip), vehicle: saline with Tween-80
[9] = dose: 100.0 mg/kg/injection, schedule: Q04DX003 (ip), vehicle: saline
[10] = dose: 200.0 mg/kg/injection, schedule: Q01DX009 (ip), vehicle: saline
[11] = dose: 200.0 mg/kg/injection, schedule: Q04DX002 (ip), vehicle: saline with Tween-80
[12] = dose: 200.0 mg/kg/injection, schedule: Q04DX003 (ip), vehicle: saline
[13] = dose: 400.0 mg/kg/injection, schedule: Q04DX002 (ip), vehicle: saline with Tween-80
[14] = dose: 400.0 mg/kg/injection, schedule: Q04DX003 (ip), vehicle: saline
[15] = dose: 6.25 mg/kg/injection, schedule: Q01DX009 (ip), vehicle: saline with Tween-80
[16] = dose: 100.0 mg/kg/injection, schedule: Q01DX001 (ip), vehicle: saline
[17] = dose: 100.0 mg/kg/injection, schedule: Q04DX003 (ip), vehicle: saline with Tween-80
[18] = dose: 200.0 mg/kg/injection, schedule: Q04DX003 (ip), vehicle: saline with Tween-80
[19] = dose: 400.0 mg/kg/injection, schedule: Q04DX003 (ip), vehicle: saline with Tween-80
[20] = dose: 12.5 mg/kg/injection, schedule: Q01DX009 (ip), vehicle: saline with Tween-80
[21] = dose: 25.0 mg/kg/injection, schedule: Q01DX009 (ip), vehicle: saline with Tween-80

In the case of CCCCOC(=O)c1ccc2c(ccc[n+]2C)c1, the T/C (dose: 37.5 mg/kg/injection, schedule: Q01DX009 (ip), vehicle: saline with Tween-80) is reported as 97 % of control, the T/C (dose: 75.0 mg/kg/injection, schedule: Q01DX009 (ip), vehicle: saline with Tween-80) is reported as 103 % of control and the T/C (dose: 150.0 mg/kg/injection, schedule: Q01DX009 (ip), vehicle: saline with Tween-80) is reported as 107 % of control.
With C[C@]12CC[C@H](OC(=O)Cc3ccc(N(CCCl)CCCl)cc3)CC1=CC[C@@H]1[C@@H]2CC[C@]2(C)C(=O)CC[C@@H]12 the T/C [1] was 92 % of control, the T/C [2] was 100 % of control and the T/C [3] was 90 % of control. The T/C [4] was 107 % of control, the T/C [5] was 96 % of control and the T/C [6] was 111 % of control.
COc1cc(-c2ccc(N)c(OC)c2)ccc1N was tested, and the T/C [1] was 100 % of control, the T/C [7] was 96 % of control and 100 % of control and the T/C [8] was 102 % of control. For the same molecule, the T/C [9] was 97 % of control, the T/C [3] was 96 % of control and the T/C [10] was 100 % of control and 102 % of control. For the same molecule, the T/C [11] was 100 % of control, the T/C [12] was 94 % of control and the T/C [5] was 103 % of control. For the same molecule, the T/C [13] was 100 % of control and the T/C [14] was 103 % of control.
COc1ccccc1NC(=O)Nc1cccc([N+](=O)[O-])c1OC was tested, and the T/C [8] was 97 % of control, the T/C [11] was 87 % of control and the T/C [13] was 94 % of control.
For COCc1nnc(N)c(C(N)=O)n1, the T/C (dose: 100.0 mg/kg/injection, schedule: Q01DX001 (ip), vehicle: carboxymethylcellulose (CMC)) was 100 % of control, the T/C (dose: 200.0 mg/kg/injection, schedule: Q01DX001 (ip), vehicle: carboxymethylcellulose (CMC)) was 100 % of control and the T/C (dose: 400.0 mg/kg/injection, schedule: Q01DX001 (ip), vehicle: carboxymethylcellulose (CMC)) was 89 % of control.
For C[n+]1c(/C=C\c2ccc(Cl)cc2)ccc2ccccc21, the T/C (dose: 3.13 mg/kg/injection, schedule: Q01DX009 (ip), vehicle: saline with Tween-80) was 96 % of control, the T/C [15] was 98 % of control and the T/C (dose: 6.25 mg/kg/injection, schedule: Q04DX003 (ip), vehicle: saline with Tween-80) was 98 % of control. The T/C (dose: 12.5 mg/kg/injection, schedule: Q04DX003 (ip), vehicle: saline with Tween-80) was 90 % of control.
O=C1c2ccccc2C(=O)c2c(NCCCCCO)ccc(NCCCCCO)c21 was tested, and the T/C (dose: 16.0 mg/kg/injection, schedule: Q01DX009 (ip), vehicle: Klucel (hydroxypropylcellulose) (HPC)) was 102 % of control, the T/C (dose: 32.0 mg/kg/injection, schedule: Q01DX009 (ip), vehicle: Klucel (hydroxypropylcellulose) (HPC)) was 93 % of control and the T/C (dose: 64.0 mg/kg/injection, schedule: Q01DX009 (ip), vehicle: Klucel (hydroxypropylcellulose) (HPC)) was 96 % of control. The T/C (dose: 128.0 mg/kg/injection, schedule: Q01DX009 (ip), vehicle: Klucel (hydroxypropylcellulose) (HPC)) was 96 % of control and the T/C (dose: 256.0 mg/kg/injection, schedule: Q01DX009 (ip), vehicle: Klucel (hydroxypropylcellulose) (HPC)) was 104 % of control.
For OCC1OC(n2ncc3c(Nc4ccccc4)ncnc32)C(O)C1O (stereo not drawn), the T/C (dose: 6.25 mg/kg/injection, schedule: Q01DX005 (ip), vehicle: other) was 97 % of control, the T/C (dose: 12.5 mg/kg/injection, schedule: Q01DX005 (ip), vehicle: other) was 91 % of control and the T/C (dose: 25.0 mg/kg/injection, schedule: Q01DX005 (ip), vehicle: other) was 100 % of control. The T/C (dose: 50.0 mg/kg/injection, schedule: Q01DX005 (ip), vehicle: other) was 96 % of control, the T/C (dose: 100.0 mg/kg/injection, schedule: Q01DX005 (ip), vehicle: other) was 92 % of control and the T/C (dose: 200.0 mg/kg/injection, schedule: Q01DX005 (ip), vehicle: other) was 96 % of control. The T/C (dose: 400.0 mg/kg/injection, schedule: Q01DX005 (ip), vehicle: other) was 96 % of control.
For C1=C(c2ccc(-c3ccccc3)cc2)Nc2ccccc2S1, the T/C (dose: 100.0 mg/kg/injection, schedule: Q04DX002 (ip), vehicle: other) was 107 % of control and the T/C (dose: 200.0 mg/kg/injection, schedule: Q04DX002 (ip), vehicle: other) was 107 % of control.
OCC1OC(n2cnc3c(OC4CCCC4)ncnc32)C(O)C1O (stereo not drawn) was tested, and the T/C [16] was 101 % of control, the T/C (dose: 200.0 mg/kg/injection, schedule: Q01DX001 (ip), vehicle: saline) was 100 % of control and the T/C (dose: 400.0 mg/kg/injection, schedule: Q01DX001 (ip), vehicle: saline) was 100 % of control.
CC(CC(=O)O)c1ccc(Cl)cc1 (stereo not drawn) was tested, and the T/C [17] was 101 % of control, the T/C [18] was 101 % of control and the T/C [19] was 101 % of control.
In the case of O=C1CSC(=S)N1/N=C/c1ccc(Cl)s1, the T/C (dose: 75.0 mg/kg/injection, schedule: Q01DX001 (ip), vehicle: other) is reported as 96 % of control.
For O=C(c1ccc(O)cc1O)c1ccc(O)cc1O, the T/C (dose: 50.0 mg/kg/injection, schedule: Q01DX009 (ip), vehicle: saline) was 104 % of control, the T/C [7] was 96 % of control and the T/C [10] was 93 % of control.
CC[N+](C)(CC)CCCOC(=O)C(c1ccccc1)c1ccccc1 was tested, and the T/C [15] was 96 % of control, the T/C [20] was 96 % of control and the T/C [21] was 94 % of control.
For CC([NH-])C([NH-])O.O=[N+]([O-])O.O=[N+]([O-])O.[Pt+2] (stereo not drawn), the T/C (dose: 12.5 mg/kg/injection, schedule: Q04DX003 (ip), vehicle: saline) was 170 % of control and the T/C (dose: 25.0 mg/kg/injection, schedule: Q04DX003 (ip), vehicle: saline) was 158 % of control.
For O=C1NC(c2ccccc2)C([N+](=O)[O-])=C1O (stereo not drawn), the T/C (dose: 100.0 mg/kg/injection, schedule: Q01DX009 (ip), vehicle: saline sonified) was 101 % of control, the T/C [2] was 101 % of control and the T/C (dose: 200.0 mg/kg/injection, schedule: Q01DX009 (ip), vehicle: saline sonified) was 98 % of control. The T/C [4] was 95 % of control, the T/C (dose: 400.0 mg/kg/injection, schedule: Q01DX009 (ip), vehicle: saline sonified) was 102 % of control and the T/C [6] was 97 % of control.
With CC1=C2CC3C(CC2(C)C(=O)C=C1)OC(=O)C3C (stereo not drawn) the T/C [17] was 93 % of control, the T/C [18] was 89 % of control and the T/C [19] was 98 % of control.
With C=CCOC(=O)CCCCCCCCC(=O)OCC=C the T/C [2] was 97 % of control, the T/C [17] was 96 % of control and the T/C [4] was 95 % of control. For the same molecule, the T/C [18] was 94 % of control.
With CCOC(=O)/C(=C/C(C#N)=C/N(C)C)CC the T/C (dose: 100.0 mg/kg/injection, schedule: Q04DX003 (ip), vehicle: saline sonified) was 93 % of control and the T/C (dose: 200.0 mg/kg/injection, schedule: Q04DX003 (ip), vehicle: saline sonified) was 108 % of control.
For NC(=O)c1[nH]cnc1NN=NCCF, the T/C (dose: 25.0 mg/kg/injection, schedule: Q01DX001 (ip), vehicle: Klucel (hydroxypropylcellulose) (HPC)) was 320 % of control.
In the case of CC(C)(C)OC(=O)NCCCC(N)C(=O)O (stereo not drawn), the T/C [17] is reported as 92 % of control, the T/C [18] is reported as 94 % of control and the T/C [19] is reported as 94 % of control.
With C/C(=N\NC(N)=O)c1cccc(/C(C)=N/NC(N)=O)n1 the T/C [15] was 102 % of control and 103 % of control, the T/C [20] was 103 % of control and 104 % of control and the T/C [21] was 100 % of control and 101 % of control. The T/C (dose: 50.0 mg/kg/injection, schedule: Q01DX009 (ip), vehicle: saline with Tween-80) was 98 % of control and 103 % of control, the T/C [2] was 92 % of control and 102 % of control and the T/C [4] was 91 % of control and 110 % of control.
For O=CNCCO, the T/C [2] was 98 % of control, the T/C [9] was 113 % of control and the T/C [4] was 94 % of control. For the same molecule, the T/C [12] was 108 % of control, the T/C [6] was 93 % of control and the T/C [14] was 110 % of control.
NC1CCC(CCCC2CCCC2)CC1 (stereo not drawn) was tested, and the T/C [15] was 102 % of control, the T/C [20] was 98 % of control and the T/C [21] was 102 % of control.
CCOC(=O)Nc1cc(NCCc2ccccc2)c(N)c(N)n1 was tested, and the T/C (dose: 50.0 mg/kg/injection, schedule: Q01DX001 (ip), vehicle: saline) was 101 % of control and the T/C [16] was 92 % of control.
For CC(=O)OC1CCC2(C)C(CCC3C2CCC2(C)C3CC3OC(CCC(C)O)C(C)C32)C1 (stereo not drawn), the T/C [8] was 86 % of control.
Cc1cccnc1N.[Cl-].[Cl-].[Cl-].[Cl-].[Pt+2] was tested, and the T/C (dose: 21.88 mg/kg/injection, schedule: Q04DX003 (ip), vehicle: saline with Tween-80) was 104 % of control and the T/C (dose: 43.75 mg/kg/injection, schedule: Q04DX003 (ip), vehicle: saline with Tween-80) was 110 % of control.
